Each molecule was assayed against Kappa-type opioid receptor (Cavia porcellus, UniProt P41144) (assay: Agonist activity at kappa opioid receptor in guinea pig ileum assessed as electric field-stimulated response).
Chain of Kappa-type opioid receptor (Cavia porcellus, UniProt P41144) (P41144 whole entry): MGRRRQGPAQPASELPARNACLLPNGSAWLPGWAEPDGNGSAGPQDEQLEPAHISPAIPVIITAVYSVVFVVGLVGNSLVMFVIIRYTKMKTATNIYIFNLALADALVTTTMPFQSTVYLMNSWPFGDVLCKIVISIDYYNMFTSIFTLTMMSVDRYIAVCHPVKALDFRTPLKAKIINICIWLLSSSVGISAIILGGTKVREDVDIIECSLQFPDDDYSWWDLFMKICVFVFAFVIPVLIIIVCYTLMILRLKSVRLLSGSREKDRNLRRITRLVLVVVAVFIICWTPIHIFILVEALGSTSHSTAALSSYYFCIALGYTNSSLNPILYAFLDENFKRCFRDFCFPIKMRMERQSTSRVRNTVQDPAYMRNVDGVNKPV
Assay type: functional, tissue-based
Work on CC(C)C[C@@H](NC(=O)[C@@H](Cc1ccccc1)NC(=O)[C@H](N)Cc1ccccc1)C(=O)N[C@H](CCCCN)C(N)=O yielded an EC50 of 0.22 nM.
Molecule CC(C)C[C@@H](NC(=O)[C@@H](Cc1ccccc1)NC(=O)[C@H](N)Cc1ccccc1)C(=O)N[C@H](CCCCN)C(=O)N1CCC(CC(=O)NCCOCCOCC(=O)NCC(=O)NCc2cn(-c3ccc(C(=O)Nc4ccc(CCC(=O)N5CCC5=O)cc4)cc3)nn2)CC1 has an EC50 of 0.2 nM.
CC(C)C[C@@H](NC(=O)[C@@H](Cc1ccccc1)NC(=O)[C@H](N)Cc1ccccc1)C(=O)N[C@H](CCCCN)C(=O)N1CCC(C(=O)NCCOCCOCC(=O)NCC(=O)NCc2cn(-c3ccc(C(=O)Nc4ccc(CCC(=O)N5CCC5=O)cc4)cc3)nn2)CC1 showed an EC50 of 0.1 nM.

Each molecule was assayed against Kappa-type opioid receptor (Homo sapiens, UniProt P41145) (assay: Agonist activity at recombinant kappa opioid receptor expressed in human U2OS cells coexpressing beta arrestin/EA complex assessed as beta arrestin recruitment after 60 mins by luminescence spectrophotometry).
Chain of Kappa-type opioid receptor (Homo sapiens, UniProt P41145) (P41145 whole entry): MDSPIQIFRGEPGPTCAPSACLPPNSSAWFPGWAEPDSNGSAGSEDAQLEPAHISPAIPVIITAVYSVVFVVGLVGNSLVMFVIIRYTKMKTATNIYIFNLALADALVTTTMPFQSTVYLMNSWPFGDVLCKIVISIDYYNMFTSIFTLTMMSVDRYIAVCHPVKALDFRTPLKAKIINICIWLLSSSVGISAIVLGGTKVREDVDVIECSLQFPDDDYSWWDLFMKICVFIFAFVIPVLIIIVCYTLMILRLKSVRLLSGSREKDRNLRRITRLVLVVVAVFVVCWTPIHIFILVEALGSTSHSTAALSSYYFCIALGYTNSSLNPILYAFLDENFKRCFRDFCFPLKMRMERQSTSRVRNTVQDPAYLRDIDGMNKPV
Assay type: functional, cell-based
CC(C)C[C@@H](NC(=O)[C@@H](Cc1ccccc1)NC(=O)[C@H](N)Cc1ccccc1)C(=O)N[C@H](CCCCN)C(N)=O was tested, and the EC50 was 3 nM.
In the case of CC(C)C[C@@H](NC(=O)[C@@H](Cc1ccccc1)NC(=O)[C@H](N)Cc1ccccc1)C(=O)N[C@H](CCCCN)C(=O)NCC(=O)NCCSC1CC(=O)N(c2ccc(CCC(=O)N3CCC3=O)cc2)C1=O (stereo partly drawn), the EC50 is reported as 3 nM.
Molecule CC(C)C[C@@H](NC(=O)[C@@H](Cc1ccccc1)NC(=O)[C@H](N)Cc1ccccc1)C(=O)N[C@H](CCCCN)C(=O)NCC(=O)NCC(=O)NCC(=O)NCCSC1CC(=O)N(c2ccc(CCC(=O)N3CCC3=O)cc2)C1=O (stereo partly drawn) has an EC50 of 5 nM.
CC(C)C[C@@H](NC(=O)[C@@H](Cc1ccccc1)NC(=O)[C@H](N)Cc1ccccc1)C(=O)N[C@H](CCCCN)C(=O)NCC(=O)NCCSC1CC(=O)N(CCC(=O)NCCOCCOCCC(=O)Nc2ccc(CCC(=O)N3CCC3=O)cc2)C1=O (stereo partly drawn) showed an EC50 of 1480 nM.
Work on CC(C)C[C@@H](NC(=O)[C@@H](Cc1ccccc1)NC(=O)[C@H](N)Cc1ccccc1)C(=O)N[C@H](CCCCN)C(=O)NCC(=O)NCC(=O)NCC(=O)NCCSC1CC(=O)N(CCC(=O)NCCOCCOCCC(=O)Nc2ccc(CCC(=O)N3CCC3=O)cc2)C1=O (stereo partly drawn) yielded an EC50 of 176 nM.

Reference: ChEMBL document CHEMBL2029319, “Kappa agonist CovX-Bodies” (Bioorg Med Chem Lett, 2012)
